Data taken from ChEMBL document CHEMBL4049435, “Development of a Series of Kynurenine 3-Monooxygenase Inhibitors Leading to a Clinical Candidate for the Treatment of Acute Pancreatitis” (J Med Chem, 2017).

Experiments:
[1] = Protein binding in human plasma; format: ADME, cell-free; conditions: read-out: PPB (converted)
[2] = Lipophilicity, log D of the compound at pH 7.4 by RP-HPLC analysis; format: physicochemical; conditions: buffer
[3] = Solubility of the compound in saline measured after 24 hrs; format: physicochemical
[4] = Half life in Han-Wistar rat at 1 mg/kg, iv by LC-MS/MS analysis; format: ADME, organism-based; conditions: in vivo
[5] = Permeability of the compound by PAMPA; format: physicochemical; conditions: read-out: permeability
serum albumin = serum albumin (Homo sapiens, UniProt P02768); test: Binding affinity to human serum albumin by HPLC analysis; format: ADME; conditions: read-out: PB (converted)
serum albumin, sequence (P02768 whole entry): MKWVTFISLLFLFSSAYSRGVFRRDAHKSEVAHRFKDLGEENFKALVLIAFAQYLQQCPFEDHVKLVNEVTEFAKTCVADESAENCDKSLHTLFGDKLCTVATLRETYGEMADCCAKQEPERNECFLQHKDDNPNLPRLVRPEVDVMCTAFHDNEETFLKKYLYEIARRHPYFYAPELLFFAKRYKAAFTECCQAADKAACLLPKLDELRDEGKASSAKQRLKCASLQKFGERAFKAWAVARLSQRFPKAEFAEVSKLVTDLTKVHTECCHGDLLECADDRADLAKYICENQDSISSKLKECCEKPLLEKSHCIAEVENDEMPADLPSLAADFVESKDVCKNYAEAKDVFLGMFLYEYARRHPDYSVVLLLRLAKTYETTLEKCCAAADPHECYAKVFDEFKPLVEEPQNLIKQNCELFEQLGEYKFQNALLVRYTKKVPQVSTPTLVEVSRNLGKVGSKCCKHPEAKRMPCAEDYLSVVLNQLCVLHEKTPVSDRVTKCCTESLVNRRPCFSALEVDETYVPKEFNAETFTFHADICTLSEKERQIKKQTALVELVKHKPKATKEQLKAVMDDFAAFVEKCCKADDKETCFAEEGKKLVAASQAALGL

[6] = Clearance in Han-Wistar rat blood at 1 mg/kg, iv by LC-MS/MS analysis; format: ADME, organism-based; conditions: whole blood
[7] = Volume of distribution at steady state in Han-Wistar rat at 1 mg/kg, iv by LC-MS/MS analysis; format: ADME, organism-based; conditions: in vivo, read-out: Vdss
[8] = Protein binding in Han-Wistar rat plasma at 1 mg/kg, iv by LC-MS/MS analysis; format: ADME, organism-based; conditions: read-out: PPB (converted)
[9] = Half life of the compound at pH 6 under oxidative condition; format: physicochemical
[10] = Stability of the compound in presence of light measured after 12 hrs; format: physicochemical; conditions: read-out: Stability
[11] = target: T1, Kynurenine 3-monooxygenase (Homo sapiens, UniProt O15229); test: Inhibition of full length human GST-tagged KMO expressed in baculovirus infected Sf9 insect cell membranes using kynurenine as substrate measured after 1 hr by RapidFire high-throughput mass spectrometric analysis
T1 sequence (O15229 whole entry): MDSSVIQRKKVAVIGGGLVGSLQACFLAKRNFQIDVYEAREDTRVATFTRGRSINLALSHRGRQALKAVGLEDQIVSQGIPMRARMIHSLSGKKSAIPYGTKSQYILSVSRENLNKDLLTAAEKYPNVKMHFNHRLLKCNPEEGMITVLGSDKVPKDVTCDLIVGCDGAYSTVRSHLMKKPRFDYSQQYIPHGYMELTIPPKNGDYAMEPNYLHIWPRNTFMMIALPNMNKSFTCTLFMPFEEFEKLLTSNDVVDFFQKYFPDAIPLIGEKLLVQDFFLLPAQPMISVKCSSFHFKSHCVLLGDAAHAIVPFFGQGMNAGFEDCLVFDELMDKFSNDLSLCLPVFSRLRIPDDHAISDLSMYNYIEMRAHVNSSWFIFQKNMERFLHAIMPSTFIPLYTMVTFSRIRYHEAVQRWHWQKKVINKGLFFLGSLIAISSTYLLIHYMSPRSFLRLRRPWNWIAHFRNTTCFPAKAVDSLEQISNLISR

[12] = target: T1, Kynurenine 3-monooxygenase

C[C@@H](Oc1cc2onc(CCC(=O)O)c2cc1Cl)c1ccccn1.NC(CO)(CO)CO
fraction unbound [1]: 0.022
logD [2]: 1.99
solubility at 24 h [3]: > 7440 µg/mL

O=C(O)CCn1c(=O)oc2cc(Cl)c(Cl)cc21
half-life [4]: 4.3 h
fraction unbound [1]: 0.018
Papp [5]: 2.4 ×10⁻⁶ cm/s
logD [2]: 1.61
fraction unbound (serum albumin): 0.037
clearance [6]: 4.3 mL/min/kg
Vd [7]: 0.28 L/kg
fraction unbound [8]: 0.083
half-life [9]: 334 h
remaining at 12 h [10]: 41%

CCOc1cc2oc(=O)n(CCC(=O)O)c2cc1Cl.NC(CO)(CO)CO
fraction unbound [1]: 0.042
Papp [5]: < 1 ×10⁻⁶ cm/s
logD [2]: 1.49
fraction unbound (serum albumin): 0.113
solubility at 24 h [3]: > 1880 µg/mL

Cc1ccc([C@@H](C)Oc2cc3oc(=O)n(CCC(=O)O)c3cc2Cl)nc1.NC(CO)(CO)CO
fraction unbound [1]: 0.022
Papp [5]: 2.2 ×10⁻⁶ cm/s
logD [2]: 2.02

NC(CO)(CO)CO.O=C(O)CCn1c(=O)oc2cc(OCc3ccccn3)c(Cl)cc21
fraction unbound [1]: 0.074
Papp [5]: 1.1 ×10⁻⁶ cm/s
logD [2]: 1.32
fraction unbound (serum albumin): 0.126
IC50 [11]: 3.16 nM
IC50 [12]: 5010 nM

Cc1cccc([C@@H](C)Oc2cc3oc(=O)n(CCC(=O)O)c3cc2Cl)n1.NC(CO)(CO)CO
Papp [5]: 2.1 ×10⁻⁶ cm/s
logD [2]: 2.12
fraction unbound (serum albumin): 0.068

Cc1ccc([C@@H](C)Oc2cc3onc(CCC(=O)O)c3cc2Cl)nc1.NC(CO)(CO)CO
fraction unbound [1]: 0.003
logD [2]: 2.42
fraction unbound (serum albumin): 0.016
solubility at 24 h [3]: > 860 µg/mL

C[C@@H](Oc1cc2cnn(CCC(=O)O)c2cc1Cl)c1ccccn1
fraction unbound [1]: 0.099
logD [2]: 1.7

C[C@@H](Oc1cc2sc(=O)n(CCC(=O)O)c2cc1Cl)c1ccccn1
logD [2]: 1.81

O=C(O)CCn1c(=O)oc2cc(OCc3ccccc3)c(Cl)cc21
logD [2]: 2.71
fraction unbound (serum albumin): 0.017

C[C@@H](Oc1cc2oc(=O)n(CCC(=O)O)c2cc1Cl)c1ccccn1
half-life [4]: 5.6 h
clearance [6]: 16.8 mL/min/kg
Vd [7]: 2.96 L/kg
fraction unbound [8]: 0.215
half-life [9]: > 1000 h
remaining at 12 h [10]: 99.2%

C[C@@H](Oc1cc2oc(=O)n(CCC(=O)O)c2cc1Cl)c1ncccn1.NC(CO)(CO)CO
Papp [5]: < 0.3 ×10⁻⁶ cm/s
logD [2]: 0.83
fraction unbound (serum albumin): 0.409

CCOc1cc2oc(=O)n(CCC(=O)O)c2cc1Cl
half-life [4]: 0.43 h
clearance [6]: 16 mL/min/kg
Vd [7]: 0.36 L/kg
fraction unbound [8]: 0.184
half-life [9]: > 1000 h
remaining at 12 h [10]: 99.5%

C[C@@H](Oc1cc2oc(=O)n(CCC(=O)O)c2cc1Cl)c1ccc(F)cn1.NC(CO)(CO)CO
Papp [5]: 3.1 ×10⁻⁶ cm/s
logD [2]: 1.98
fraction unbound (serum albumin): 0.06

C[C@@H](Oc1cc2ccn(CCC(=O)O)c2cc1Cl)c1ccccn1
logD [2]: 2.17

NC(CO)(CO)CO.O=C(O)CCn1c(=O)oc2cc(OCCN3CCCC3)c(Cl)cc21
Papp [5]: < 0.3 ×10⁻⁶ cm/s
logD [2]: -0.26
fraction unbound (serum albumin): 0.849

O=C(O)CCn1c(=O)oc2cc(OCc3ccccn3)c(Cl)cc21
Ki [11]: 1 nM

COc1cc2oc(=O)n(CCC(=O)O)c2cc1Cl
Papp [5]: < 0.3 ×10⁻⁶ cm/s
fraction unbound (serum albumin): 0.11

O=C(O)CCn1c(=O)oc2cc(OCC3CC3)c(Cl)cc21
half-life [4]: 0.68 h
clearance [6]: 4.1 mL/min/kg
Vd [7]: 0.26 L/kg
fraction unbound [8]: 0.098
half-life [9]: > 1000 h
remaining at 12 h [10]: 105%

Cc1ccnc([C@@H](C)Oc2cc3oc(=O)n(CCC(=O)O)c3cc2Cl)c1.NC(CO)(CO)CO
Papp [5]: < 0.3 ×10⁻⁶ cm/s
logD [2]: 2.15
fraction unbound (serum albumin): 0.056

C[C@@H](Oc1cc2onc(CCC(=O)O)c2cc1Cl)c1ccc(Cl)cn1
half-life [4]: 8.7 h
clearance [6]: 0.35 mL/min/kg
Vd [7]: 0.26 L/kg
fraction unbound [8]: 0.003
half-life [9]: > 1000 h
remaining at 12 h [10]: 99.5%

NC(CO)(CO)CO.O=C(O)CCn1c(=O)oc2cc(OCC3CCC3)c(Cl)cc21
fraction unbound [1]: 0.019
Papp [5]: 1.2 ×10⁻⁶ cm/s
logD [2]: 2.9
fraction unbound (serum albumin): 0.019

O=C(O)CCn1c(=O)oc2cc(OC3CC3)c(Cl)cc21
half-life [4]: 0.39 h
clearance [6]: 9.4 mL/min/kg
Vd [7]: 0.29 L/kg
fraction unbound [8]: 0.097
half-life [9]: > 1000 h
remaining at 12 h [10]: 100%

NC(CO)(CO)CO.O=C(O)CCn1c(=O)oc2cc(Cl)c(Cl)cc21
solubility at 24 h [3]: 270 µg/mL

Cc1cc2oc(=O)n(CCC(=O)O)c2cc1Cl
half-life [4]: 3.7 h
fraction unbound [1]: 0.024
clearance [6]: 4.7 mL/min/kg
Vd [7]: 0.52 L/kg
fraction unbound [8]: 0.045
half-life [9]: > 1000 h
remaining at 12 h [10]: 100%

Cc1ccc([C@@H](C)Oc2cc3onc(CCC(=O)O)c3cc2Cl)nc1
half-life [4]: 3.6 h
clearance [6]: 1.1 mL/min/kg
Vd [7]: 0.31 L/kg
fraction unbound [8]: 0.009
half-life [9]: > 1000 h
remaining at 12 h [10]: 96.5%

CC(C)Cc1cc2oc(=O)n(CCC(=O)O)c2cc1Cl.NC(CO)(CO)CO
Papp [5]: < 1 ×10⁻⁶ cm/s
logD [2]: 3.03
fraction unbound (serum albumin): 0.008

CCc1cc2oc(=O)n(CCC(=O)O)c2cc1Cl.NC(CO)(CO)CO
fraction unbound [1]: 0.013
Papp [5]: 1 to 2.2 ×10⁻⁶ cm/s
logD [2]: 1.94
fraction unbound (serum albumin): 0.026

C[C@@H](Oc1cc2onc(CCC(=O)O)c2cc1Cl)c1ccc(F)cn1
logD [2]: 2.47
fraction unbound (serum albumin): 0.017

C[C@@H](Oc1cc2oc(=O)n(CCC(=O)O)c2cc1Cl)c1ncco1.NC(CO)(CO)CO
Papp [5]: < 0.3 ×10⁻⁶ cm/s
logD [2]: 1.11
fraction unbound (serum albumin): 0.227

COCCOc1cc2oc(=O)n(CCC(=O)O)c2cc1Cl.NC(CO)(CO)CO
fraction unbound [1]: 0.293
Papp [5]: < 0.3 ×10⁻⁶ cm/s
logD [2]: 0.88
fraction unbound (serum albumin): 0.558

C[C@@H](Oc1cc2oc(=O)n(CCC(=O)O)c2cc1Cl)c1ccccn1.NC(CO)(CO)CO
fraction unbound [1]: 0.119
Papp [5]: 0.3 to 2 ×10⁻⁶ cm/s
logD [2]: 1.71
fraction unbound (serum albumin): 0.067
solubility at 24 h [3]: > 9500 µg/mL

Cc1ccc([C@@H](C)Oc2cc3onc(CCC(=O)O)c3cc2Cl)nn1
half-life [4]: 1.5 h
fraction unbound [1]: 0.071
logD [2]: 2.97
fraction unbound (serum albumin): 0.108
clearance [6]: 12 mL/min/kg
Vd [7]: 1.1 L/kg
fraction unbound [8]: 0.067
half-life [9]: > 1000 h
IC50 [12]: 3.16 nM
remaining at 12 h [10]: 85.2%

C[C@@H](Oc1cc2c(cc1Cl)N(CCC(=O)O)C(=O)CO2)c1ccccn1
fraction unbound [1]: 0.075
logD [2]: 1.56

C[C@@H](Oc1cc2oc(=O)n(CCC(=O)O)c2cc1Cl)c1ccc(Cl)cn1.NC(CO)(CO)CO
fraction unbound [1]: 0.01
Papp [5]: 6 ×10⁻⁶ cm/s
logD [2]: 2.65
fraction unbound (serum albumin): 0.021

Cc1cc2oc(=O)n(CCC(=O)O)c2cc1Cl.NC(CO)(CO)CO
Papp [5]: 0.3 to 1 ×10⁻⁶ cm/s
logD [2]: 1.26
fraction unbound (serum albumin): 0.05
solubility at 24 h [3]: > 127000 µg/mL
IC50 [12]: 631 nM

C[C@H](Oc1cc2oc(=O)n(CCC(=O)O)c2cc1Cl)c1ccccn1.NC(CO)(CO)CO
Papp [5]: < 0.3 ×10⁻⁶ cm/s
logD [2]: 1.79
fraction unbound (serum albumin): 0.084

CC(Oc1cc2oc(=O)n(CCC(=O)O)c2cc1Cl)c1ccccn1.NC(CO)(CO)CO (configuration not stated)
fraction unbound [1]: 0.183
Papp [5]: < 0.3 ×10⁻⁶ cm/s
logD [2]: 1.86
fraction unbound (serum albumin): 0.129

Cc1ccc([C@@H](C)Oc2cc3onc(CCC(=O)O)c3cc2Cl)nn1.NC(CO)(CO)CO
solubility at 24 h [3]: 230 µg/mL

C[C@@H](Oc1cc2onc(CCC(=O)O)c2cc1Cl)c1ccc(Cl)cn1.NC(CO)(CO)CO
fraction unbound [1]: 0.002
logD [2]: 2.91
fraction unbound (serum albumin): 0.01
solubility at 24 h [3]: > 620 µg/mL
